pIC50: −log10 of the molar value.
Key:
[1] = Apparent permeability from apical to basolateral side in human Caco2 cells at 10 uM by lucifer yellow flux assay; format: ADME, cell-based; details: Caco-2
[2] = Half life in Sprague-Dawley rat plasma at 1 mg/kg, iv by LC/MS/MS analysis; format: ADME, organism-based
[3] = Volume of distribution at steady state in Beagle dog plasma at 0.5 mg/kg, iv measured 24 hrs post dose by LC/MS/MS analysis; format: ADME, organism-based, Canis lupus familiaris; details: read-out: Vdss
Cytochrome P450 2C8 = biological target: T1, Cytochrome P450 2C8 (Homo sapiens, UniProt P10632); test: Inhibition of CYP2C8 in human liver microsomes after 5 mins in presence of NADPH by LC-MS/MS analysis; format: ADME
T1 sequence (P10632 whole entry): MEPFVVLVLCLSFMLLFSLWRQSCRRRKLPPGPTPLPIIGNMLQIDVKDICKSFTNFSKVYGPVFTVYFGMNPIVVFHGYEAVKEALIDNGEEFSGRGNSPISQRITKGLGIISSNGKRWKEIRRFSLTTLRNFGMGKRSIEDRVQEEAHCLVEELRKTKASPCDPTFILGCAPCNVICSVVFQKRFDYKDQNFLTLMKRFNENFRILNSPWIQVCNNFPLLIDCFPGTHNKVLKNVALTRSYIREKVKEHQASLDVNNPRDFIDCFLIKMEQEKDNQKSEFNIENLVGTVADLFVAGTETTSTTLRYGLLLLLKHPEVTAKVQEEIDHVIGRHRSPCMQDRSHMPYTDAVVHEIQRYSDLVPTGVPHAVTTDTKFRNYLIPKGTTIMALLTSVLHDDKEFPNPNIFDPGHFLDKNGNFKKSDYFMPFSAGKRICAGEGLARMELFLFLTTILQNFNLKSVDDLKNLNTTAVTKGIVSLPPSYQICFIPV

[4] = Clearance in CD-1 mouse plasma at 1 mg/kg, iv measured 24 hrs post dose by LC/MS/MS analysis; format: ADME, organism-based
Salmonella typhimurium = test: Genotoxicity in Salmonella typhimurium by Ames test; format: toxicity, organism-based; details: salmonella enterica subsp. enterica serovar typhimurium
Cytochrome P450 2B6 = biological target: T2, Cytochrome P450 2B6 (Homo sapiens, UniProt P20813); test: Inhibition of CYP2B6 in human liver microsomes after 5 mins in presence of NADPH by LC-MS/MS analysis; format: ADME
T2 sequence (P20813 whole entry): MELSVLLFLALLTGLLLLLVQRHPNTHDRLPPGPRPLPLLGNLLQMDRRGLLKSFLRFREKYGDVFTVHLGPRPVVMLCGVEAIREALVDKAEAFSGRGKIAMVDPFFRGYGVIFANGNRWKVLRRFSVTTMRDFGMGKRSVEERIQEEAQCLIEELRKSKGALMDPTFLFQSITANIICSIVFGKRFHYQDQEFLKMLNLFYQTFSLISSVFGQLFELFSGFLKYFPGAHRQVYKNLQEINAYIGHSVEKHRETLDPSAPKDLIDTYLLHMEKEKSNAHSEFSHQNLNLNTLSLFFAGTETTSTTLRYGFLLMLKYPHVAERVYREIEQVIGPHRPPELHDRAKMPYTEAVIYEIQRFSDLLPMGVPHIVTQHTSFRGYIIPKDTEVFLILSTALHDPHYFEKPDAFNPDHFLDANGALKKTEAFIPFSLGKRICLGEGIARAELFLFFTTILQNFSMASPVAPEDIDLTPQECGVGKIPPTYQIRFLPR

[5] = Oral bioavailability in cynomolgus monkey plasma at […] measured 24 hrs post dose by LC/MS/MS analysis; format: ADME, organism-based, Macaca fascicularis
[6] = Half life in CD-1 mouse plasma at 1 mg/kg, iv by LC/MS/MS analysis; format: ADME, organism-based
[7] = AUC (0 to infinity) in cynomolgus monkey plasma at […] administered via oral gavage measured 24 hrs post dose by LC/MS/MS analysis; format: ADME, organism-based, Macaca fascicularis; parameters: dose 2.5 mg/kg, route oral, time infinity
Cytochrome P450 2D6 = Cytochrome P450 2D6 (Homo sapiens, UniProt P10635); test: Inhibition of CYP2D6 in human liver microsomes after 5 mins in presence of NADPH by LC-MS/MS analysis; format: ADME
Chain of Cytochrome P450 2D6 (P10635 whole entry): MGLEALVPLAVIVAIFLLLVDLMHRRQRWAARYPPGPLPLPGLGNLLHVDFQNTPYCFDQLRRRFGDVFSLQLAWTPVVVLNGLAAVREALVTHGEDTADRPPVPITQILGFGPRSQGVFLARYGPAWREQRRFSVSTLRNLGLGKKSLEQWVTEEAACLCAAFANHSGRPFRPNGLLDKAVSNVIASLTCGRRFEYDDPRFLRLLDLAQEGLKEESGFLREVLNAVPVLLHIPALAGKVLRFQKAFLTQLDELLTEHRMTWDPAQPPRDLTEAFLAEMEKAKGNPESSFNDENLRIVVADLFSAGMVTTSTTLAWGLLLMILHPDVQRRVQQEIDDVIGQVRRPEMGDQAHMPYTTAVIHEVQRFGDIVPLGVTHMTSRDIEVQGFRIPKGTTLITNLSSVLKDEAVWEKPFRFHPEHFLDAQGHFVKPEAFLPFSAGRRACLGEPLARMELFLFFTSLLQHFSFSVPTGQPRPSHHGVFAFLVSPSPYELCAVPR

[8] = Fraction unbound in monkey plasma at 1 uM after 5 hrs by rapid equilibrium dialysis based LC-MS/MS analysis; format: ADME, cell-free, Macaca mulatta; details: rhesus monkey
Cytochrome P450 1A2 = biological target: T3, Cytochrome P450 1A2 (Homo sapiens, UniProt P05177); test: Inhibition of CYP1A2 in human liver microsomes after 5 mins in presence of NADPH by LC-MS/MS analysis; format: ADME
T3 sequence (P05177 whole entry): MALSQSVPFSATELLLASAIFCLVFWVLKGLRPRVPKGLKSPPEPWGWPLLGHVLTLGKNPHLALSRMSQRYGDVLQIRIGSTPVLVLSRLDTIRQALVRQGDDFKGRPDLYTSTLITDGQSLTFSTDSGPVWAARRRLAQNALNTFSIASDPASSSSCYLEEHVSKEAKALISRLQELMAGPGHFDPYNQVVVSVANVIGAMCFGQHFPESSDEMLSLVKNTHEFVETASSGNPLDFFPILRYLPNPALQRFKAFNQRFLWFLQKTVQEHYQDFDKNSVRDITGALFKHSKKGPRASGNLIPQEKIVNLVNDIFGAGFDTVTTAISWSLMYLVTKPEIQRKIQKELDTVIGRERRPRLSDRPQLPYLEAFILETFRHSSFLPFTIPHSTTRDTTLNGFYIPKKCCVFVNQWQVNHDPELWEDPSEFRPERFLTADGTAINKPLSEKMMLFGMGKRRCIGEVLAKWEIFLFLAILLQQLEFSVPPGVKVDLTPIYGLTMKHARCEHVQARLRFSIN

[9] = Clearance in Beagle dog plasma at 0.5 mg/kg, iv measured 24 hrs post dose by LC/MS/MS analysis; format: ADME, organism-based, Canis lupus familiaris
[10] = Fraction unbound in rat plasma at 1 uM after 5 hrs by rapid equilibrium dialysis based LC-MS/MS analysis; format: ADME, cell-free
Cytochrome P450 3A4 = Cytochrome P450 3A4 (Homo sapiens, UniProt P08684); test: Inhibition of CYP3A4 in human liver microsomes after 5 mins in presence of NADPH by LC-MS/MS analysis; format: ADME
Chain of Cytochrome P450 3A4 (P08684 whole entry): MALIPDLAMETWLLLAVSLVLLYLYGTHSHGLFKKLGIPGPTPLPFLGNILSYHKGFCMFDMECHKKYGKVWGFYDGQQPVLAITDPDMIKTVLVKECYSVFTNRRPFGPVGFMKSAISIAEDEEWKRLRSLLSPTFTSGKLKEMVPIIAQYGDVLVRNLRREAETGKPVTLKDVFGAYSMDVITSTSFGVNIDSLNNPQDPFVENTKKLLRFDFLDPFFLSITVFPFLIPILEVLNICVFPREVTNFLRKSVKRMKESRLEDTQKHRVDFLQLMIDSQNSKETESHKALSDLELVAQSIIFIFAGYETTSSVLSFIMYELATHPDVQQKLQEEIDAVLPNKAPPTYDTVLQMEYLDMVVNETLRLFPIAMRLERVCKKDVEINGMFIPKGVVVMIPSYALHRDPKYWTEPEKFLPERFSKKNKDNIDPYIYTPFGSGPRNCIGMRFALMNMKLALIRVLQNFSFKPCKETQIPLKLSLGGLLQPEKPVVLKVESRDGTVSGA

[11] = AUC (0 to infinity) in Sprague-Dawley rat plasma at 5 mg/kg administered via oral gavage measured 24 hrs post dose by LC/MS/MS analysis; format: ADME, organism-based; parameters: dose 5 mg/kg, time infinity, route oral
[12] = Clearance in Sprague-Dawley rat plasma at 1 mg/kg, iv measured 24 hrs post dose by LC/MS/MS analysis; format: ADME, organism-based
[13] = Volume of distribution at steady state in Sprague-Dawley rat plasma at 1 mg/kg, iv measured 24 hrs post dose by LC/MS/MS analysis; format: ADME, organism-based; details: read-out: Vdss
[14] = Oral bioavailability in Beagle dog plasma at […] measured 24 hrs post dose by LC/MS/MS analysis; format: ADME, organism-based, Canis lupus familiaris
[15] = biological target: Voltage-gated inwardly rectifying potassium channel KCNH2 (Homo sapiens, UniProt Q12809); test: Inhibition of human ERG
Chain of Voltage-gated inwardly rectifying potassium channel KCNH2 (Q12809 whole entry): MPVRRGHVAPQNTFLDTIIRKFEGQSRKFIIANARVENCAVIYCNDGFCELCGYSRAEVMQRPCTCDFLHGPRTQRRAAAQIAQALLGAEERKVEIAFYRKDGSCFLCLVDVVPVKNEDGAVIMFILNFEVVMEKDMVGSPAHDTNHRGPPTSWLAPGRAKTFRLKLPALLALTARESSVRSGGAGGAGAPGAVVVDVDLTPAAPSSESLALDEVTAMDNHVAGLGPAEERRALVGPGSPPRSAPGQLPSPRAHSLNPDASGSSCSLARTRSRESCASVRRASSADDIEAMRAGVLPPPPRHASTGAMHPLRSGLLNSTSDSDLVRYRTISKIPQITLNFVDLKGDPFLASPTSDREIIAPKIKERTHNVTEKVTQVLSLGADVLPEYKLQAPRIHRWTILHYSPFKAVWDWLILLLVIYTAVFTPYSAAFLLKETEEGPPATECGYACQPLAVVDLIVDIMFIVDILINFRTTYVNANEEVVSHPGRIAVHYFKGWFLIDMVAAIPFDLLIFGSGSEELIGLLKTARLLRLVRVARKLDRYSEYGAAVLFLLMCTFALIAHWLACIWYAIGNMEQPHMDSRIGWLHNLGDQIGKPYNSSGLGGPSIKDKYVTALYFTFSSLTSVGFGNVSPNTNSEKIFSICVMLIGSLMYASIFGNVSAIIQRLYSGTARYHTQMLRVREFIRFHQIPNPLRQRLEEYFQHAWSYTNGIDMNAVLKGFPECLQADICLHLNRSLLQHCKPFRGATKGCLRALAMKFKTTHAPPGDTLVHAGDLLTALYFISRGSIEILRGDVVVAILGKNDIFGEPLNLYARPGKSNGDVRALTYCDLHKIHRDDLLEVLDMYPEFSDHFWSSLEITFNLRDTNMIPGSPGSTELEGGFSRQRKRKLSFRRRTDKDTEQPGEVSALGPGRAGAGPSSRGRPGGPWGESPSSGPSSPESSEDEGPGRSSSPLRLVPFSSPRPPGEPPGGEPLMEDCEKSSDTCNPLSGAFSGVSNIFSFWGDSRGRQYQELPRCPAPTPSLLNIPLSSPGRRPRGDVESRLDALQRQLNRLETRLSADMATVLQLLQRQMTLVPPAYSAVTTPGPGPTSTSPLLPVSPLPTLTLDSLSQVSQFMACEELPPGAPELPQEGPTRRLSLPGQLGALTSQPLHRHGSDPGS

[16] = Half life in mouse hepatocytes at 1 uM by LC/MS analysis; format: ADME, cell-based, Hepatocyte
[17] = Volume of distribution at steady state in CD-1 mouse plasma at 1 mg/kg, iv measured 24 hrs post dose by LC/MS/MS analysis; format: ADME, organism-based; details: read-out: Vdss
[18] = Cmax in cynomolgus monkey plasma at […] administered via oral gavage measured 24 hrs post dose by LC/MS/MS analysis; format: ADME, organism-based, Macaca fascicularis; parameters: dose 2.5 mg/kg, route oral
[19] = Fraction unbound in mouse plasma at 1 uM after 5 hrs by rapid equilibrium dialysis based LC-MS/MS analysis; format: ADME, cell-free

C[C@H](NC(=O)c1c(N)nn2cccnc12)c1cc2cccc(C#Cc3cnn(C)c3)c2c(=O)n1-c1ccccc1 [EGANELISIB]
Papp A→B at 10 µM [1]: 130 nm/s | half-life [2]: 4.4 h | Vd [3]: 1.3 L/kg | pIC50 (Cytochrome P450 2C8): < 4.70 | clearance [4]: 0.216 L/h/kg | Activity (Salmonella typhimurium): Non-Toxic | pIC50 (Cytochrome P450 2B6): < 4.70 | bioavailability at 24 h [5]: 31% | half-life [6]: 3.2 h | AUC(0-inf) at 24 h [7]: 4.03 µg·h/mL | pIC50 (Cytochrome P450 2D6): < 4.70 | fraction unbound at 5 h, 1 µM [8]: 0.04 | pIC50 (Cytochrome P450 1A2): < 4.70 | clearance [9]: 0.168 L/h/kg | fraction unbound at 5 h, 1 µM [10]: 0.028 | pIC50 (Cytochrome P450 3A4): < 4.70 | AUC(0-inf) [11]: 8.05 µg·h/mL | clearance [12]: 0.264 L/h/kg | Vd [13]: 1.2 L/kg | bioavailability at 24 h [14]: 65% | pIC50 [15]: < 5.00 | half-life at 1 µM [16]: > 6 h | Vd [17]: 0.8 L/kg | Cmax at 24 h [18]: 0.56 µM | fraction unbound at 5 h, 1 µM [19]: 0.022

Reference: ChEMBL document CHEMBL3853350 (ACS Med Chem Lett, 2016)
